The record followed here is patent US11034700B2, “Substituted pyrrolidine compound and use thereof” (Takeda Pharmaceutical Company Limited, priority 2017, dated 2021).

The test deals with T1, human OX2 receptor (Homo sapiens, UniProt O43614).
T1 construct: expressed in transfected cells
T1 sequence (O43614 1-444): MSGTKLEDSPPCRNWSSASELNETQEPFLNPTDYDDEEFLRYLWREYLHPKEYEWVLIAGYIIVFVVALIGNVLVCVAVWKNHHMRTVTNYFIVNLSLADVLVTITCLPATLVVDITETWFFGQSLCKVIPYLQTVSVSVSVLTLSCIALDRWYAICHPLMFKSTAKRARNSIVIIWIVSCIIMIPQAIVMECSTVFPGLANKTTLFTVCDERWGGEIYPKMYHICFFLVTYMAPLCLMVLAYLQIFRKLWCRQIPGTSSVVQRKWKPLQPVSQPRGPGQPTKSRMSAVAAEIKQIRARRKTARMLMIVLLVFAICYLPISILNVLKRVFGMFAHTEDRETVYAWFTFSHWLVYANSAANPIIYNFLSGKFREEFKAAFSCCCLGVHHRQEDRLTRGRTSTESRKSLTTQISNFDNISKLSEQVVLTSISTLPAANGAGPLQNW
Nature of the test: Measurement of orexin type 2 receptor agonist activity (Fluo-4 calcium fluorescence, FDSS). It is filed as cell-based. The settings on record: compound at 3 μM; CHO cells forcibly expressing human OX2 receptor; DMSO = 0%, orexin A (human) 10 nM = 100%. From the text:
Experimental Example 1: Obtainment of Cell Stably Expressing Human Orexin Type 2 Receptor (hOX2R)
To obtain a cell clone stably expressing human orexin type 2 receptor, human orexin type 2 receptor cDNA was inserted into pcDNA3.1(+) plasmid vector (Invitrogen), and a plasmid DNA for expression of human orexin type 2 receptor (pcDNA3.1(+)/hOX2R) was cloned. The plasmid DNA was introduced into CHO-dhfr cell by an electroporation method, and human orexin type 2 receptor expressing clone cells were obtained by limiting dilution method by using G418 drug resistance as a selection marker.
Experimental Example 2: Measurement of Orexin Type 2 Receptor Agonist Activity
CHO cells forcibly expressing human OX2 receptor were seeded in each well of 384 well black transparent bottom plate (BD Falcon) at 7,500 cells/well, and cultured for one day in a 5% CO2 incubator at 37° C. After removal of the medium in the cell plate, assay buffer A containing a calcium indicator (HESS (Life Technologies), 20 mM HEPES (Life Technologies), 0.1% BSA (Wako Pure Chemical Industries, Ltd.), 2.5 μg/mL Fluo-4 AM (DOJINDO Chemical), 0.08% Pluronic F127 (DOJINDO Chemical), 1.25 mM probenecid (DOJINDO Chemical)) was added at 30 μL/well. The plate was stood for 30 min in a 5% CO2 incubator at 37° C., and further stood at room temperature for 30 min. A test compound prepared by diluting with assay buffer B (HESS, 20 mM HEPES, 0.1% BSA) was added at 10 μL/well, and the fluorescence value was measured by FDSSμCELL (Hamamatsu Photonics K.K.) every one sec for 1 min, and thereafter every two sec for 1 min 40 sec. The activity (%) of the test compound was calculated assuming that variation in the fluorescence value when DMSO was added instead of the test compound was 0% […], and variation in the fluorescence value when orexin A (human) (PEPTIDE INSTITUTE, INC.) was added at the final concentration of 10 nM was 100% […]. The activity of each compound at the concentration of 3 μM was shown below.

Take `CCCS(=O)(=O)Nc1cccc(O[C@@H]2CN(C(=O)c3cc(C)ccc3C)C[C@H]2OC)c1` (relative stereo) [Example 66, trans-N-(3-((1-(2,5-dimethylbenzoyl)-4-methoxypyrrolidin-3-yl)oxy)phenyl)propane-1-sulfonamide]: the “OX2R agonist activity (3 μM, %)” value is given as 76%. Under `COc1ccccc1S(=O)(=O)Nc1cccc(O[C@H]2CCN(C(=O)c3cc(C)ccc3C)C2)c1` [Example 62, N-(3-(((3S)-1-(2,5-dimethylbenzoyl)pyrrolidin-3-yl)oxy)phenyl)-2-methoxybenzenesulfonamide] stands 69%; under `COc1ccccc1S(=O)(=O)Nc1cc(C)cc(O[C@@H]2CN(C(=O)c3cc(C)ccc3C)C[C@H]2OC)c1` (relative stereo) [Example 105, trans-N-(3-((1-(2,5-dimethylbenzoyl)-4-methoxypyrrolidin-3-yl)oxy)-5-methylphenyl)-2-methoxybenzenesulfonamide], 94%. Turning to `COc1ccccc1CC(=O)N1CC[C@H](Oc2cccc(NS(=O)(=O)c3cc(-c4cccc(C(=O)N(C)C)c4)ccc3OC)c2)C1` [Example 17, 4′-methoxy-3′-((3-(((3S)-1-((2-methoxyphenyl)acetyl)pyrrolidin-3-yl)oxy)phenyl)sulfamoyl)-N,N-dimethylbiphenyl-3-carboxamide], the “OX2R agonist activity (3 μM, %)” value is 90%. Under `COc1ccc(C2CCCCN2C(C)=O)cc1S(=O)(=O)Nc1cccc(O[C@H]2CCN(C(=O)c3c(C)cccc3C)C2)c1` (stereo partly drawn) [Example 33, 5-(1-acetylpiperidin-2-yl)-N-(3-(((3S)-1-(2,6-dimethylbenzoyl)pyrrolidin-3-yl)oxy)phenyl)-2-methoxybenzenesulfonamide] stands 89%; under `COc1ccccc1S(=O)(=O)Nc1cccc(O[C@@H]2CN(C(=O)c3cc(C)ccc3C)C[C@H]2OC)c1Cl` (relative stereo) [Example 117, trans-N-(2-chloro-3-((1-(2,5-dimethylbenzoyl)-4-methoxypyrrolidin-3-yl)oxy)phenyl)-2-methoxybenzenesulfonamide], 66%; under `COc1ccc(-c2cccc(C(=O)N(C)C)c2)cc1S(=O)(=O)Nc1cccc(OC2CCN(C(=O)c3cccc(C)c3)C2)c1` (stereo not shown) [Example 2, 4′-methoxy-N,N-dimethyl-3′-((3-((1-(3-methylbenzoyl)pyrrolidin-3-yl)oxy)phenyl)sulfamoyl)bipheny-3-carboxamide], 90%. Under `COc1ccccc1S(=O)(=O)Nc1cccc(O[C@@H]2CN(C(=O)c3cc(C)ccc3C)C[C@H]2OC)c1F` (relative stereo) [Example 87, trans-N-(3-((1-(2,5-dimethylbenzoyl)-4-methoxypyrrolidin-3-yl)oxy)-2-fluorophenyl)-2-methoxybenzenesulfonamide] stands 103%; under `Cc1cccc(C)c1C(=O)N1CC[C@H](Oc2cccc(NS(=O)(=O)c3cc(-c4cccc(C(=O)N(C)C)c4)ccc3F)c2)C1` [Example 35, 3′-((3-(((3S)-1-(2,6-dimethylbenzoyl)pyrrolidin-3-yl)oxy)phenyl)sulfamoyl)-4′-fluoro-N,N-dimethylbiphenyl-3-carboxamide], 99%; under `COc1ccc(N2CCCC(C(=O)N3CCCC3)C2)cc1S(=O)(=O)Nc1cccc(O[C@H]2CCN(C(=O)c3c(C)cccc3C)C2)c1` (stereo partly drawn) [Example 42, N-(3-(((3S)-1-(2,6-dimethylbenzoyl)pyrrolidin-3-yl)oxy)phenyl)-2-methoxy-5-(3-(pyrrolidin-1-ylcarbonyl)piperidin-1-yl)benzenesulfonamide], 97%. Under `COc1ccc(-c2cccc(C(=O)N(C)C)c2)cc1S(=O)(=O)Nc1cccc(O[C@H]2CCN(C(=O)c3ccc(C)cc3C)C2)c1` [Example 25, 3′-((3-(((3S)-1-(2,4-dimethylbenzoyl)pyrrolidin-3-yl)oxy)phenyl)sulfamoyl)-4′-methoxy-N,N-dimethylbiphenyl-3-carboxamide] stands 97%; under `CO[C@@H]1CN(C(=O)c2cc(C)ccc2C)C[C@H]1Oc1cccc(NS(=O)(=O)c2ccccc2)c1` (relative stereo) [Example 65, trans-N-(3-((1-(2,5-dimethylbenzoyl)-4-methoxypyrrolidin-3-yl)oxy)phenyl)benzenesulfonamide], 78%; under `COc1ccc(-c2cccc(C(=O)N(C)C)c2)cc1S(=O)(=O)Nc1cccc(N(C)C2CCN(C(=O)c3cc(C)ccc3C)C2)c1` (stereo not shown) [Example 58, 3′-((3-((1-(2,5-dimethylbenzoyl)pyrrolidin-3-yl)(methyl)amino)phenyl)sulfamoyl)-4′-methoxy-N,N-dimethylbiphenyl-3-carboxamide], 104%. Turning to `CO[C@@H]1CN(C(=O)c2c(C)cccc2C)C[C@H]1Oc1cccc(NS(=O)(=O)c2sccc2Cl)c1F` (relative stereo) [Example 111, trans-3-chloro-N-(3-((1-(2,6-dimethylbenzoyl)-4-methoxypyrrolidin-3-yl)oxy)-2-fluorophenyl)thiophene-2-sulfonamide], the “OX2R agonist activity (3 μM, %)” value was 52%. Under `COc1ccccc1S(=O)(=O)Nc1cccc(O[C@@H]2CN(C(=O)c3cc(C)ccc3C)C[C@H]2C)c1` (relative stereo) [Example 92, trans-N-(3-((1-(2,5-dimethylbenzoyl)-4-methylpyrrolidin-3-yl)oxy)phenyl)-2-methoxybenzenesulfonamide] stands 102%; under `COc1ccc(-c2cccc(C(=O)N(C)C)c2)cc1S(=O)(=O)Nc1cccc(O[C@H]2CCN(C(=O)c3cccc(C)c3)C2)c1` [Example 6, 4′-methoxy-N,N-dimethyl-3′-((3-(((3S)-1-(3-methylbenzoyl)pyrrolidin-3-yl)oxy)phenyl)sulfamoyl)biphenyl-3-carboxamide], 101%; under `COc1ccccc1S(=O)(=O)Nc1cccc(O[C@@H]2CN(C(=O)c3cc(C)ccc3C)C[C@H]2O)c1` (relative stereo) [Example 114, trans-N-(3-((1-(2,5-dimethylbenzoyl)-4-hydroxypyrrolidin-3-yl)oxy)phenyl)-2-methoxybenzenesulfonamide], 60%.

Take `CO[C@@H]1CN(C(=O)c2cc(C)ccc2C)C[C@H]1Oc1cccc(NS(=O)(=O)c2ccccc2F)c1` [Example 82, N-(3-(((3R,4R)-1-(2,5-dimethylbenzoyl)-4-methoxypyrrolidin-3-yl)oxy)phenyl)-2-fluorobenzenesulfonamide]: the “OX2R agonist activity (3 μM, %)” value came to 101%. Under `COc1ccccc1S(=O)(=O)Nc1cccc(O[C@@H]2CN(C(=O)c3cc(C)ccc3C)C[C@H]2OC)c1` (relative stereo) [Example 56, trans-N-(3-((1-(2,5-dimethylbenzoyl)-4-methoxypyrrolidin-3-yl)oxy)phenyl)-2-methoxybenzenesulfonamide] stands 101%; under `COc1ccc(-c2cccc(C(=O)N(C)C)c2)cc1S(=O)(=O)Nc1cccc(O[C@H]2CCN(C(=O)c3c(C)cccc3C)C2)c1F` [Example 71, 3′-((3-(((3S)-1-(2,6-dimethylbenzoyl)pyrrolidin-3-yl)oxy)-2-fluorophenyl)sulfamoyl)-4′-methoxy-N,N-dimethylbiphenyl-3-carboxamide], 89%. Under `COc1ccccc1S(=O)(=O)Nc1cccc(C[C@@H]2CN(C(=O)c3cc(C)ccc3C)C[C@H]2OC)c1` (relative stereo) [Example 119, trans-N-(3-((1-(2,5-dimethylbenzoyl)-4-methoxypyrrolidin-3-yl)methyl)phenyl)-2-methoxybenzenesulfonamide] stands 57%; under `COc1ccc(-c2cccc(C(=O)N(C)C)c2)cc1S(=O)(=O)Nc1cc(O[C@H]2CCN(C(=O)c3c(C)cccc3C)C2)ccc1F` [Example 72, 3′-((5-(((3S)-1-(2,6-dimethylbenzoyl)pyrrolidin-3-yl)oxy)-2-fluorophenyl)sulfamoyl)-4′-methoxy-N,N-dimethylbiphenyl-3-carboxamide], 85%.
